Patent US20090099167A1, “Organic compounds” (Novartis Institutes for Biomedical Research, priority 2004, published 2009)
pIC50: −log10 of the molar value.

Columns and labels:
[1] = target: c-Src kinase (Homo sapiens, UniProt P12931); experiment: c-Src kinase inhibition; format: biochemical; conditions: Table 5; read-out: c-scr, IC50 class
Text: An appropriate assay is described in Andrejauskas-Buchdunger et al., Cancer Res. 52, 5353-8 (1992).

[2] = target: Cdk1/cycB (UniProt P06493); experiment: Cdk1/cycB kinase assay, histone H1 substrate; format: biochemical, starfish; conditions: Table 5; read-out: CDK1/B, IC50 class
Summary of the method: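 Active Cdk1/cycB was purified from starfish oocytes arrested in M phase with 1-methyladenine, using p9CKShs-sepharose. Reactions ran 20 min at ambient temperature and were stopped with EDTA. Phosphorylated product was captured on Immobilon P membranes, washed in H3PO4 and EtOH, and counted by scintillation.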

Chain of c-Src kinase (P12931 whole entry): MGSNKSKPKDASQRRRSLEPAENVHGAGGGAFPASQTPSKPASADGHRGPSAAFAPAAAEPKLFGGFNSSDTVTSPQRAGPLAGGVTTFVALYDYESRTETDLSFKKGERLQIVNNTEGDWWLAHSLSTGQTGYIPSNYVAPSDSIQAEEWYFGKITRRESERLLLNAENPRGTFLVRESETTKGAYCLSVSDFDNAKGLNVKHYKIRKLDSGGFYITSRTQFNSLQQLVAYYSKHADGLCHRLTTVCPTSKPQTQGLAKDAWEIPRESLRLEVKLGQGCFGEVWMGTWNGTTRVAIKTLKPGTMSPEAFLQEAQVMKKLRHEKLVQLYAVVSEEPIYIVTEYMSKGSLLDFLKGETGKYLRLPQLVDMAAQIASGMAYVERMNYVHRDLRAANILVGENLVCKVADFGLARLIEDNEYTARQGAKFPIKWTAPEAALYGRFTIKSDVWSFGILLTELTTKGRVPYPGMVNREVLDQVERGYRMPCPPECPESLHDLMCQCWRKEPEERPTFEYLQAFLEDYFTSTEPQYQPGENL

| Structure (SMILES) | pIC50 [1] | pIC50 [2] |
| --- | --- | --- |
| COc1ccc(-c2cnn3c(N)c(-c4ccc(F)c(Cl)c4)c(C)nc23)cc1 [Example 95, 6-(3-Chloro-4-fluoro-phenyl)-3-(4-methoxy-phenyl)-5-methyl-pyrazolo[1,5-a]pyrimidin-7-ylamine] | 5.00 to 6.00 | < 5.00 |
| Cc1nc2c(-c3cccc(N4CCN(C)CC4)c3)cnn2c(N)c1-c1ccc(F)cc1 [Example 80, 6-(4-Fluoro-phenyl)-5-methyl-3-[3-(4-methyl-piperazin-1-yl)-phenyl]-pyrazolo[1,5-a]pyrimidin-7-ylamine] | > 6.00 | < 5.00 |
| COc1ccc(-c2cnn3c(N)c(-c4cccc(Cl)c4)c(C)nc23)cc1OC [Example 93, 6-(3-Chloro-phenyl)-3-(3,4-dimethoxy-phenyl)-5-methyl-pyrazolo[1,5-a]pyrimidin-7-ylamine] | > 6.00 | < 5.00 |
| Cc1nc2c(-c3cccc(N4CCN(CCO)CC4)c3)cnn2c(N)c1-c1ccc(F)cc1 [Example 97, 2-(4-{3-[7-Amino-6-(4-fluoro-phenyl)-5-methyl-pyrazolo[1,5-a]pyrimidin-3-yl]-phenyl}-piperazin-1-yl)-ethanol] | > 6.00 | < 5.00 |
| Cc1nc2c(-c3cccc(N4CCN(CCO)CC4)c3)cnn2c(N)c1-c1ccc(F)c(F)c1 [Example 101, 2-(4-{3-[7-Amino-6-(3,4-difluoro-phenyl)-5-methyl-pyrazolo[1,5-a]pyrimidin-3-yl]-phenyl}-piperazin-1-yl)-ethanol] | > 6.00 | < 5.00 |
| Cc1nc2c(-c3cccc(N4CCN(C)CC4)c3)cnn2c(N)c1-c1cccc(Cl)c1 [Example 72, 6-(3-Chloro-phenyl)-5-methyl-3-[3-(4-methyl-piperazin-1-yl)-phenyl]-pyrazolo[1,5-a]pyrimidin-7-ylamine] | > 6.00 | < 5.00 |
